Legend:
[1] = system: platelet accumulation at sites of laser-induced injury; experiment: Thrombus formation in cremaster arterioles after laser-induced injury, intravital microscopy; format: in vivo; conditions: mice
Protocol: Intravital video microscopy of the cremaster muscle microcirculation was performed as described previously in Falati, S., Gross, P., Merrill-Skoloff, G., Furie, B. C. & Furie, Nat Med 8, 1175-81. (2002); and Jasuj a, R. et al., J Clin Invest 122, 2104-2113 (2012). Digital images were captured with an Orca Flash 4.0v2 sCMOS camera (Hamamatsu Photonics K.K., Shizuoka Pref., Japan). Representative images are presented, but the median curves include the full data. The kinetics of platelet thrombus formation were analyzed by determining median fluorescence values over time in ˜30-40 thrombi in three mice.
Two hours prior to surgery, 100 mg/kg of the suicide P450 inhibitor 1-aminobenzotriazole (ABT) was administered intraperioneally to each mouse. The cremaster muscle was then surgically exposed. Prior to arteriolar wall injury, DyLight-labeled antibodies were infused intravenously together with drug or vehicle control. Injury to a cremaster arteriolar vessel (30-50-μm diameter) was induced with a MicroPoint laser system Andor Andor Technology, Ltd., Belfast Ireland) focused through the microscope objective, parfocal with the focal plane and tuned to 440 nm through a dye cell containing 5 mM coumarin in methanol. Data were captured digitally from two fluorescence channels, 488/520 nm and 647/670 nm, as well as a brightfield channel Data acquisition was initiated both prior to and following an ablation laser pulse for each injury. The microscope system was controlled and images were collected and analyzed using SlideBook 6.0 (Intelligent Imaging Innovations, Denver, Colo.).
Prior to induction of the thrombus but after injection of the fluorescently labeled antibody, approximately 30 time points were recorded. Subsequently, a thrombus is initiated and recorded for approximately 170 seconds. […] The mean of maximal intensity values in the upstream region for each frame is calculated and used as the threshold to define those pixels containing signal. […] Using this information, the actual integrated intensity for each frame is calculated according to the following formula: […]

full-length PDI = biological target: T1, full-length PDI (Homo sapiens, UniProt P07237); experiment: Small-angle X-ray scattering (SAXS)
T1 construct: FLAG; made in house; host or cells: Escherichia coli Origami B (DE3), pET-15b
T1 sequence (P07237 18-508): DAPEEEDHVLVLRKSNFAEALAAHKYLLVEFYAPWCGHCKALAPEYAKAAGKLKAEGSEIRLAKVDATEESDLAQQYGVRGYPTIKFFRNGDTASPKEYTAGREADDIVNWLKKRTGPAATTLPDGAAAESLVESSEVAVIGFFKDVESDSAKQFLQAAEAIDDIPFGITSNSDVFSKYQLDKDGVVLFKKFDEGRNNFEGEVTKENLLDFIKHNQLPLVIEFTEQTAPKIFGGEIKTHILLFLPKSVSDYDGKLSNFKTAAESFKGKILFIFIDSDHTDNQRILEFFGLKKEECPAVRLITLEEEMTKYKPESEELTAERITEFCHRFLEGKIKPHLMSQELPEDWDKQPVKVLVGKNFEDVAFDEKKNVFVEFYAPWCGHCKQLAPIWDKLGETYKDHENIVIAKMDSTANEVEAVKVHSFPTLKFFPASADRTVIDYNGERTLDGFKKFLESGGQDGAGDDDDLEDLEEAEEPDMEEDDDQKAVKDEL
Protocol: Further purification of full-length PDI was achieved by gel filtration. PDI (1.5, 3.0 and 4.5 mg/mL) was dialyzed against 20 mM Tris, 150 mM NaCl, 5% glycerol (pH: 8.0) containing 0.5 mM bepristat 1b or 2b or DMSO control at 4° C. overnight. Evaluation by SAXS was performed on the SIBYLS beamline in the Advanced Light Source using a high throughput data collection method.

[2] = biological target: T2, PDI mutant in which the CGHC motif is mutated to AGHA (Homo sapiens, UniProt P07237, C397A/C400A/C53A/C56A); experiment: Di-eosin-GSSG disulfide reductase assay, catalytically inactive mutant; format: biochemical; conditions: FIG. 1c
T2 sequence (P07237 18-508 C53A/C56A/C397A/C400A): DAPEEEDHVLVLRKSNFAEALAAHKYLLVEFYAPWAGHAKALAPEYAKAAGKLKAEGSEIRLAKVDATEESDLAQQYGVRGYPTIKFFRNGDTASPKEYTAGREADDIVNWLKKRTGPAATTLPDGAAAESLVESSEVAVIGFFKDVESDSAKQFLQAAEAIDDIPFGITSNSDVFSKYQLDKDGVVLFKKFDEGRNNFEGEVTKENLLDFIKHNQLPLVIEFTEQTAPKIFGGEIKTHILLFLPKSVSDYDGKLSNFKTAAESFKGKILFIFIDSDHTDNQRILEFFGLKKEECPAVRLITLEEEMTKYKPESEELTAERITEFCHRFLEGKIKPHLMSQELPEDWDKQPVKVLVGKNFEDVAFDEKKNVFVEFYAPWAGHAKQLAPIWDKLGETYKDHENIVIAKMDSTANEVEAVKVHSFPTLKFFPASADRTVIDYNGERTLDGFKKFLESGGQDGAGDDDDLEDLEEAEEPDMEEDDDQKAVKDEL
Protocol: The probe di-eosin glutathione disulfide, di-eosin-GSSG, was prepared as previously described in Raturi, A., Vacratsis, P. O., Seslija, D., Lee, L. & Mutus, B., Biochem J 391, 351-357 (2005). Reductase activity of purified thiol isomerases and PDI domains was monitored in a 96-well fluorescence plate format. PDI, AGHA-PDI, ERpS, ERp57, ERp72 and PDI domains were assayed at 50 nM in the presence or absence of the indicated small molecules, peptides or cathepsin G. The assay included 100 mM potassium phosphate (pH 7.4) containing 2 mM EDTA, 5 μM DTT and 150 nM of the di-eosin GSSG probe. The increase in fluorescence was determined for 20 minutes by excitation at 520 nm and emission at 550 nm in a Synergy Biotek 4. The reduction of 150 nM di-eosin-GSSG by 5 μM DTT in the presence or absence of mentioned small molecules, peptides or proteins served as a negative control.

CCOC(=O)c1c(CNCCN(CC)CC)n(-c2ccccc2)c2cc(Br)c(O)cc12 [bepristat 2a]
tolerability in vivo ([1]; 15 mg/kg infusion): tolerated in vivo
inhibition of platelet accumulation at sites of laser-induced injury ([1]; infusion 15 mg/kg body weight, p=0.02, FIG. 3c): 14.9 % of controls
thrombus formation in vivo ([1]; laser injury of cremaster arterioles): potently inhibits thrombus formation
PDI conformation by SAXS (full-length PDI): more compact conformation
augmentation of activity of catalytically inactive PDI (AGHA) [2]: fails to augment activity

From patent publication US20180370912A1, “COMPOUNDS AND METHODS FOR TREATING DISEASES MEDIATED BY PROTEIN DISULFIDE ISOMERASE” (Beth Israel Deaconess Medical Center, Inc., priority 2017, published 2018)
